Legend:
Type in all cases: in vivo, rat
male Sprague-Dawley rats [1] = test: EEG/EMG/Tcore/LMA telemetry sleep study 1 (SB-334867 vs ZOL); settings: 7.5 mg/kg ip
Description: (§1) All rodent electroencephalograph (EEG) studies were performed at SRI International. Three groups of eight male Sprague-Dawley rats (300±25 g; Charles River, Wilmington, MA) were implanted with chronic recording devices (F40-EET, Data Sciences Inc., St Paul, MN) for continuous recordings of EEG, electromyograph (EMG), core body temperature (Tcore), and LMA via telemetry as previously described. Data recording and scoring were performed as previously reported (see also Supplemental Material and Methods). The EEG and EMG data were scored in 10 sec epochs for waking (W), rapid eye movement sleep (REM), and non-REM sleep (NR). Tcore and LMA (counts per minute) were analyzed as hourly means. Data from the EEG studies are reported in hourly means such that the hourly time ZT1 refers to the hour between time points ZT0 and ZT1.
(§2) For each of the three separate studies, a repeated measures counter-balanced design was employed in which each rat received five separate dosings. […] All dosings were administered ip in a volume of 2 ml/kg. A minimum of 3 d elapsed between doses. Dosing occurred during the middle of the rats’ normal active period at the start of ZT19 and was typically completed within 10 min. Animals were continuously recorded for 6 h prior to dosing and for 18 h following dosing.

male Sprague-Dawley rats [2] = test: EEG/EMG/Tcore/LMA telemetry sleep study 2 (EMPA vs ZOL); settings: ZOL 10 mg/kg ip
Description: as §1, §2

male Sprague-Dawley rats [3] = test: EEG/EMG/Tcore/LMA telemetry sleep study 3 (almorexant vs ZOL); settings: ZOL 10 mg/kg ip
Description: as §1, §2

male Sprague-Dawley rats [4] = test: Rodent EEG studies, all three studies together
Description: as §1, §2

Cc1ccc(-c2nc3ccc(C)cn3c2CC(=O)N(C)C)cc1 [ZOL, N,N,6-Trimehtyl-2-(methylphenyl)-imidazol[1,2-a]pyridine-3-acetamide]
NR bout duration (male Sprague-Dawley rats [1]; 6 h Average): 1.63 ± 0.07
REM bout duration (male Sprague-Dawley rats [1]; 6 h Average): 0.99 ± 0.09
W bout duration (male Sprague-Dawley rats [1]; 6 h Average): 4.50 ± 0.41
Number of NR bouts (male Sprague-Dawley rats [1]; 6 h Total): 62.88 ± 3.98
Number of REM bouts (male Sprague-Dawley rats [1]; 6 h Total): 13.13 ± 1.32
Number of W bouts (male Sprague-Dawley rats [1]; 6 h Total): 56.0 ± 4.43
NR bout duration (male Sprague-Dawley rats [1]; ZT19): 3.33 ± 0.78
Number of NR bouts (male Sprague-Dawley rats [1]; ZT19): 7.50 ± 1.43
Number of REM bouts (male Sprague-Dawley rats [1]; ZT19): 1.38 ± 0.46
Number of W bouts (male Sprague-Dawley rats [1]; ZT19): 6.75 ± 1.31
REM bout duration (male Sprague-Dawley rats [1]; ZT19): 0.77 ± 0.20
NR bout duration (male Sprague-Dawley rats [1]; ZT20): 2.95 ± 0.43
Number of NR bouts (male Sprague-Dawley rats [1]; ZT20): 7.75 ± 1.29
Number of REM bouts (male Sprague-Dawley rats [1]; ZT20): 0.88 ± 0.48
Number of W bouts (male Sprague-Dawley rats [1]; ZT20): 6.00 ± 0.82
REM bout duration (male Sprague-Dawley rats [1]; ZT20): 0.76 ± 0.19
NR bout duration (male Sprague-Dawley rats [1]; ZT21): 1.87 ± 0.20
Number of NR bouts (male Sprague-Dawley rats [1]; ZT21): 17.25 ± 2.00
Number of REM bouts (male Sprague-Dawley rats [1]; ZT21): 4.50 ± 0.78
Number of W bouts (male Sprague-Dawley rats [1]; ZT21): 12.00 ± 1.95
REM bout duration (male Sprague-Dawley rats [1]; ZT21): 1.28 ± 0.11
W bout duration (male Sprague-Dawley rats [1]; ZT21): 2.44 ± 0.75
NR bout duration (male Sprague-Dawley rats [1]; ZT22): 1.01 ± 0.10
Number of NR bouts (male Sprague-Dawley rats [1]; ZT22): 14.88 ± 1.88
Number of REM bouts (male Sprague-Dawley rats [1]; ZT22): 1.25 ± 0.75
Number of W bouts (male Sprague-Dawley rats [1]; ZT22): 14.75 ± 2.49
W bout duration (male Sprague-Dawley rats [1]; ZT22): 3.30 ± 0.66
NR bout duration (male Sprague-Dawley rats [1]; ZT23): 0.82 ± 0.10
Number of NR bouts (male Sprague-Dawley rats [1]; ZT23): 7.25 ± 1.06
Number of REM bouts (male Sprague-Dawley rats [1]; ZT23): 1.00 ± 0.38
Number of W bouts (male Sprague-Dawley rats [1]; ZT23): 7.75 ± 1.19
REM bout duration (male Sprague-Dawley rats [1]; ZT23): 0.72 ± 0.26
NR bout duration (male Sprague-Dawley rats [1]; ZT24): 0.84 ± 0.09
Number of NR bouts (male Sprague-Dawley rats [1]; ZT24): 8.25 ± 1.75
Number of W bouts (male Sprague-Dawley rats [1]; ZT24): 7.88 ± 1.63
REM bout duration (male Sprague-Dawley rats [1]; ZT24): 0.86 ± 0.24
W bout duration (male Sprague-Dawley rats [1]; ZT24): 12.51 ± 0.82
NR bout duration (male Sprague-Dawley rats [2]; 6 h Average): 1.80 ± 0.13
REM bout duration (male Sprague-Dawley rats [2]; 6 h Average): 0.88 ± 0.07
W bout duration (male Sprague-Dawley rats [2]; 6 h Average): 3.94 ± 0.29
Number of NR bouts (male Sprague-Dawley rats [2]; 6 h Total): 73.70 ± 4.34
Number of REM bouts (male Sprague-Dawley rats [2]; 6 h Total): 12.10 ± 1.30
Number of W bouts (male Sprague-Dawley rats [2]; 6 h Total): 55.80 ± 3.84
NR bout duration (male Sprague-Dawley rats [2]; ZT19): 3.89± 0.68
Number of NR bouts (male Sprague-Dawley rats [2]; ZT19): 8.90 ± 1.06
Number of REM bouts (male Sprague-Dawley rats [2]; ZT19): 0.60± 0.31
Number of W bouts (male Sprague-Dawley rats [2]; ZT19): 8.10± 0.97
REM bout duration (male Sprague-Dawley rats [2]; ZT19): 0.65± 0.16
W bout duration (male Sprague-Dawley rats [2]; ZT19): 3.64± 0.51
NR bout duration (male Sprague-Dawley rats [2]; ZT20): 3.13± 0.44
Number of NR bouts (male Sprague-Dawley rats [2]; ZT20): 11.60± 1.38
Number of REM bouts (male Sprague-Dawley rats [2]; ZT20): 1.10± 0.48
Number of W bouts (male Sprague-Dawley rats [2]; ZT20): 8.60± 1.59
REM bout duration (male Sprague-Dawley rats [2]; ZT20): 0.96± 0.27
W bout duration (male Sprague-Dawley rats [2]; ZT20): 3.23± .037
NR bout duration (male Sprague-Dawley rats [2]; ZT21): 1.81± 0.27
Number of NR bouts (male Sprague-Dawley rats [2]; ZT21): 16.40± 2.10
Number of REM bouts (male Sprague-Dawley rats [2]; ZT21): 3.30± 0.75
Number of W bouts (male Sprague-Dawley rats [2]; ZT21): 11.00± 1.74
REM bout duration (male Sprague-Dawley rats [2]; ZT21): 0.66± 0.09
W bout duration (male Sprague-Dawley rats [2]; ZT21): 3.10± .059
NR bout duration (male Sprague-Dawley rats [2]; ZT22): 1.34± 0.17
Number of NR bouts (male Sprague-Dawley rats [2]; ZT22): 16.10± 1.11
Number of REM bouts (male Sprague-Dawley rats [2]; ZT22): 4.80± 0.55
Number of W bouts (male Sprague-Dawley rats [2]; ZT22): 12.10± 0.85
REM bout duration (male Sprague-Dawley rats [2]; ZT22): 0.97± 0.10
W bout duration (male Sprague-Dawley rats [2]; ZT22): 2.59± 0.31
NR bout duration (male Sprague-Dawley rats [2]; ZT23): 0.98± 0.11
Number of NR bouts (male Sprague-Dawley rats [2]; ZT23): 13.00± 1.64
Number of REM bouts (male Sprague-Dawley rats [2]; ZT23): 1.90± 0.35
Number of W bouts (male Sprague-Dawley rats [2]; ZT23): 8.90± 1.15
W bout duration (male Sprague-Dawley rats [2]; ZT23): 5.59 ±0.93
NR bout duration (male Sprague-Dawley rats [2]; ZT24): 0.92± 0.20
Number of NR bouts (male Sprague-Dawley rats [2]; ZT24): 7.50± 1.58
Number of REM bouts (male Sprague-Dawley rats [2]; ZT24): 0.40± 0.22
Number of W bouts (male Sprague-Dawley rats [2]; ZT24): 6.20± 1.31
REM bout duration (male Sprague-Dawley rats [2]; ZT24): 0.58± 0.14
W bout duration (male Sprague-Dawley rats [2]; ZT24): 12.90± 3.56
NR bout duration (male Sprague-Dawley rats [3]; 6 h Average): 1.99 ± 0.16
REM bout duration (male Sprague-Dawley rats [3]; 6 h Average): 0.97 ± 0.12
W bout duration (male Sprague-Dawley rats [3]; 6 h Average): 2.88 ± 0.16
Number of NR bouts (male Sprague-Dawley rats [3]; 6 h Total): 77.63 ± 3.56
Number of REM bouts (male Sprague-Dawley rats [3]; 6 h Total): 7.38 ± 1.68
Number of W bouts (male Sprague-Dawley rats [3]; 6 h Total): 68.00 ± 4.23
NR bout duration (male Sprague-Dawley rats [3]; ZT19): 3.53 ± 0.71
Number of REM bouts (male Sprague-Dawley rats [3]; ZT19): 0.50 ± 0.27
Number of W bouts (male Sprague-Dawley rats [3]; ZT19): 8.75 ± 1.56
REM bout duration (male Sprague-Dawley rats [3]; ZT19): 0.33 ± 0.10
W bout duration (male Sprague-Dawley rats [3]; ZT19): 4.15 ± 0.82
NR bout duration (male Sprague-Dawley rats [3]; ZT20): 2.90 ± 0.19
Number of NR bouts (male Sprague-Dawley rats [3]; ZT20): 11.63 ± 1.36
Number of REM bouts (male Sprague-Dawley rats [3]; ZT20): 0.50 ± 0.38
Number of W bouts (male Sprague-Dawley rats [3]; ZT20): 10.00 ± 0.71
REM bout duration (male Sprague-Dawley rats [3]; ZT20): 2.25 ± 0.25
W bout duration (male Sprague-Dawley rats [3]; ZT20): 2.31 ± 0.33
NR bout duration (male Sprague-Dawley rats [3]; ZT21): 2.84 ± 0.34
Number of NR bouts (male Sprague-Dawley rats [3]; ZT21): 11.88 ± 1.60
Number of W bouts (male Sprague-Dawley rats [3]; ZT21): 10.25 ± 1.56
W bout duration (male Sprague-Dawley rats [3]; ZT21): 2.69 ± 0.42
NR bout duration (male Sprague-Dawley rats [3]; ZT22): 2.27 ± 0.44
Number of NR bouts (male Sprague-Dawley rats [3]; ZT22): 13.50 ± 1.88
Number of REM bouts (male Sprague-Dawley rats [3]; ZT22): 2.50 ± 0.82
Number of W bouts (male Sprague-Dawley rats [3]; ZT22): 10.50 ± 1.21
W bout duration (male Sprague-Dawley rats [3]; ZT22): 3.13 ± 0.59
NR bout duration (male Sprague-Dawley rats [3]; ZT23): 1.29 ± 0.20
Number of NR bouts (male Sprague-Dawley rats [3]; ZT23): 17.25 ± 3.27
Number of REM bouts (male Sprague-Dawley rats [3]; ZT23): 1.75 ± 0.41
Number of W bouts (male Sprague-Dawley rats [3]; ZT23): 15.13 ± 3.17
W bout duration (male Sprague-Dawley rats [3]; ZT23): 3.85 ± 1.44
NR bout duration (male Sprague-Dawley rats [3]; ZT24): 1.03 ± 0.12
Number of NR bouts (male Sprague-Dawley rats [3]; ZT24): 13.13 ± 2.37
Number of REM bouts (male Sprague-Dawley rats [3]; ZT24): 1.00 ± 0.42
Number of W bouts (male Sprague-Dawley rats [3]; ZT24): 12.63 ± 2.40
REM bout duration (male Sprague-Dawley rats [3]; ZT24): 0.66 ± 0.29
W bout duration (male Sprague-Dawley rats [3]; ZT24): 4.15 ± 0.83
NR latency (in words) (male Sprague-Dawley rats [4]; ZOL 7.5 or 10 mg/kg ip, all three experiments): decrease in NR latency
cumulative NR (in words) (male Sprague-Dawley rats [4]; all three experiments): increased cumulative NR
cumulative REM (in words) (male Sprague-Dawley rats [4]; all three experiments): decreased cumulative REM
Tcore (in words) (male Sprague-Dawley rats [4]; all three studies, followed by rebound increase in the light period): largest declines in Tcore
EEG delta power during NR (in words) (male Sprague-Dawley rats [4]; compared to vehicle control): significant effects on EEG delta power during NR

From PMC3388080 (PLoS ONE, 2012)
